Assay results taken from patent publication US20110118350A1, “COMPOSITION FOR PREVENTING CARDIOVASCULAR EVENT IN HIGH-RISK PATIENT” (MOCHIDA PHARMACEUTICAL CO., LTD., priority 2008, published 2011).

Test: Incidence of cardiovascular events for 5 years from the start of administration (DELIS partial analysis)
Format: in vivo, human
Details: for Ratio of incidence reduction (%): EPA-E vs control group; for Incidence (%) of cardiovascular events / Number of cardiovascular events: 5 years
From the text: This trial corresponds to a partial analysis of the results obtained in DELIS (Japan EPA Lipid Intervention Study) which is a large scale clinical trial of high purity EPA preparation which was presented in the American College of Cardiology 2005 Annual Meeting (for general information on DELIS, see Lancet, vol. 369, pp. 1090-1098 (2007)). More specifically, of 18,645 subject patients of the DELIS trial (EPA group (9,326 cases) and control group (9,319 cases)), 15534 cases (sum of the control group and EPA group) were analyzed for the composition of plasma fatty acids and divided based on the average of the plasma OA/SA ratio during the whole observation period into three groups (i.e., a group having an OA/SA ratio of less than 2.6, a group having an OA/SA ratio of at least 2.6 but less than 3.0, and a group having an OA/SA ratio of at least 3.0) so that the three groups were approximately equal in number, and the groups were compared for the incidence of cardiovascular events for 5 years from the start of administration. The EPA group was orally administered with Epadel (EPA-E available from Mochida Pharmaceutical Co., Ltd.) typically at an adult dose of 600 mg per administration and 3 times a day immediately after the meal. However, in the case of abnormal serum TG, the dose could be increased to 900 mg per administration and 3 times a day depending on the degree of abnormality. In both groups, pravastatin sodium (Mevalotin™ tablets and fine granules, Daiichi Sankyo Co., Ltd.), simvastatin (Lipovas™ tablets, Banyu Pharmaceutical Co., Ltd.), or atorvastatin calcium hydrate (Lipitor™ tablets, Astellas Pharma Inc. and Pfizer Inc.) was used for the base drug, and these drugs were orally administered according to the prescribed dosage regimen. This trial corresponds to a partial analysis of the results obtained in DELIS as in Example 1. More specifically, primary prevention cases combined with secondary prevention cases, only primary prevention cases, and only secondary prevention cases were respectively divided into four groups based on the plasma OA level or the plasma SA level at the start of administration so that the four groups were approximately equal in number. The groups were compared for the incidence of cardiovascular events for 5 years from the start of administration.

[1] = primary + secondary prevention cases, Total (oleic acid grouping)
[2] = primary + secondary prevention cases, Total (stearic acid grouping)
[3] = primary + secondary prevention cases, oleic acid at start 22.1< mol %
[4] = primary + secondary prevention cases, oleic acid at start >18.2-20.1 mol %
[5] = primary + secondary prevention cases, oleic acid at start >20.1-22.1 mol %
[6] = primary + secondary prevention cases, oleic acid at start −18.2 mol %
[7] = primary + secondary prevention cases, stearic acid at start 7.35< mol %
[8] = primary + secondary prevention cases, stearic acid at start >6.46-6.89 mol %
[9] = primary + secondary prevention cases, stearic acid at start >6.89-7.35 mol %
[10] = primary + secondary prevention cases, stearic acid at start −6.46 mol %
[11] = primary prevention cases, Total (oleic acid grouping)
[12] = primary prevention cases, Total (stearic acid grouping)
[13] = primary prevention cases, oleic acid at start 21.9< mol %
[14] = primary prevention cases, oleic acid at start >18.1-19.9 mol %
[15] = primary prevention cases, oleic acid at start >19.9-21.9 mol %
[16] = primary prevention cases, oleic acid at start −18.1 mol %
[17] = primary prevention cases, stearic acid at start 7.33< mol %
[18] = primary prevention cases, stearic acid at start >6.46-6.89 mol %
[19] = primary prevention cases, stearic acid at start >6.89-7.33 mol %
[20] = primary prevention cases, stearic acid at start −6.46 mol %
[21] = secondary prevention cases, Total (oleic acid grouping)
[22] = secondary prevention cases, Total (stearic acid grouping)
[23] = secondary prevention cases, oleic acid at start 22.1< mol %
[24] = secondary prevention cases, oleic acid at start >18.2-20.1 mol %
[25] = secondary prevention cases, oleic acid at start >20.1-22.1 mol %
[26] = secondary prevention cases, oleic acid at start −18.2 mol %
[27] = secondary prevention cases, stearic acid at start 7.38< mol %
[28] = secondary prevention cases, stearic acid at start >6.46-6.90 mol %
[29] = secondary prevention cases, stearic acid at start >6.90-7.38 mol %
[30] = secondary prevention cases, stearic acid at start −6.46 mol %

## CC/C=C\C/C=C\C/C=C\C/C=C\C/C=C\CCCC(=O)OCC [EPA-E, ethyl icosapentate]
[1]
  Ratio of incidence reduction (%): 13.2%
  Incidence (%) of cardiovascular events: 3.8%
  Number of cardiovascular events: 266
[2]
  Ratio of incidence reduction (%): 13.2%
  Incidence (%) of cardiovascular events: 3.8%
  Number of cardiovascular events: 266
[3]
  Ratio of incidence reduction (%): 30.3%
  Incidence (%) of cardiovascular events: 4.7%
  Number of cardiovascular events: 77
[4]
  Ratio of incidence reduction (%): 14.6%
  Incidence (%) of cardiovascular events: 3.1%
  Number of cardiovascular events: 55
[5]
  Ratio of incidence reduction (%): −2.0%
  Incidence (%) of cardiovascular events: 4.4%
  Number of cardiovascular events: 76
[6]
  Ratio of incidence reduction (%): −5.3%
  Incidence (%) of cardiovascular events: 3.3%
  Number of cardiovascular events: 58
[7]
  Ratio of incidence reduction (%): 39.5%
  Incidence (%) of cardiovascular events: 2.5%
  Number of cardiovascular events: 44
[8]
  Ratio of incidence reduction (%): −13.9%
  Incidence (%) of cardiovascular events: 4.9%
  Number of cardiovascular events: 81
[9]
  Ratio of incidence reduction (%): 26.6%
  Incidence (%) of cardiovascular events: 3.2%
  Number of cardiovascular events: 56
[10]
  Ratio of incidence reduction (%): 1.8%
  Incidence (%) of cardiovascular events: 4.8%
  Number of cardiovascular events: 85
[11]
  Ratio of incidence reduction (%): 11.1%
  Incidence (%) of cardiovascular events: 2.5%
  Number of cardiovascular events: 140
[12]
  Ratio of incidence reduction (%): 11.1%
  Incidence (%) of cardiovascular events: 2.5%
  Number of cardiovascular events: 140
[13]
  Ratio of incidence reduction (%): 30.4%
  Incidence (%) of cardiovascular events: 2.8%
  Number of cardiovascular events: 40
[14]
  Ratio of incidence reduction (%): 26.1%
  Incidence (%) of cardiovascular events: 1.9%
  Number of cardiovascular events: 27
[15]
  Ratio of incidence reduction (%): −20.6%
  Incidence (%) of cardiovascular events: 3.2%
  Number of cardiovascular events: 46
[16]
  Ratio of incidence reduction (%): −12.2%
  Incidence (%) of cardiovascular events: 1.8%
  Number of cardiovascular events: 27
[17]
  Ratio of incidence reduction (%): 17.0%
  Incidence (%) of cardiovascular events: 1.9%
  Number of cardiovascular events: 27
[18]
  Ratio of incidence reduction (%): −17.3%
  Incidence (%) of cardiovascular events: 3.1%
  Number of cardiovascular events: 43
[19]
  Ratio of incidence reduction (%): 19.5%
  Incidence (%) of cardiovascular events: 2.4%
  Number of cardiovascular events: 34
[20]
  Ratio of incidence reduction (%): 22.0%
  Incidence (%) of cardiovascular events: 2.4%
  Number of cardiovascular events: 36
[21]
  Ratio of incidence reduction (%): 15.5%
  Incidence (%) of cardiovascular events: 10.2%
  Number of cardiovascular events: 126
[22]
  Ratio of incidence reduction (%): 15.5%
  Incidence (%) of cardiovascular events: 10.2%
  Number of cardiovascular events: 126
[23]
  Ratio of incidence reduction (%): 40.8%
  Incidence (%) of cardiovascular events: 9.5%
  Number of cardiovascular events: 27
[24]
  Ratio of incidence reduction (%): −3.4%
  Incidence (%) of cardiovascular events: 8.7%
  Number of cardiovascular events: 28
[25]
  Ratio of incidence reduction (%): 8.1%
  Incidence (%) of cardiovascular events: 11.5%
  Number of cardiovascular events: 37
[26]
  Ratio of incidence reduction (%): 3.0%
  Incidence (%) of cardiovascular events: 11.2%
  Number of cardiovascular events: 34
[27]
  Ratio of incidence reduction (%): 65.2%
  Incidence (%) of cardiovascular events: 4.3%
  Number of cardiovascular events: 14
[28]
  Ratio of incidence reduction (%): −19.9%
  Incidence (%) of cardiovascular events: 14.2%
  Number of cardiovascular events: 41
[29]
  Ratio of incidence reduction (%): 38.7%
  Incidence (%) of cardiovascular events: 6.9%
  Number of cardiovascular events: 22
[30]
  Ratio of incidence reduction (%): −26.0%
  Incidence (%) of cardiovascular events: 16.4%
  Number of cardiovascular events: 49
Patients with an OA level exceeding 22.1 mol % or an SA level exceeding 7.38 mol %
  effect on incidence and/or rate of recurrence of cardiovascular events: reduced incidence and/or rate of recurrence of cardiovascular events
